Tests used:
[1] = system: AMP-dependent protein kinase (AMPK); conditions: U.S. Pat. No. 9,707,222; cited from earlier work
blood glucose = conditions: U.S. Pat. No. 9,707,222; cited from earlier work
[2] = system: excisional full-thickness square-shaped skin wound; assay: Effect of salsolinol ointment on excisional full-thickness skin wound healing in guinea pigs; assay type: in vivo; conditions: for recover rate of wound vs vehicle control: another experiment; for wound recovery (wound images) vs vehicle controls: FIG. 3
Method: Salsolinol ointments at 0.01 mg/g, 0.03 mg/g and 0.1 mg/g were prepared respectively by dissolving 0.5 mg, 1.5 mg, and 5 mg of salsoinol in 2.5 mL of glycerol (Sigma Inc., MO, USA) plus 1.0 mL of Creagel emulsifier (First Chemical, TPE, Taiwan) and 45.5 mL of distilled water. Vehicle was composed of glycerol (2.5 mL), Creagel emulsifier (1.0 mL), and distilled water (45.5 mL).
Guinea pigs were purchased and were acclimatized at a room temperature, and had free access to water. All experimental procedures were approved by and performed in compliance with the guidelines of the Institutional Animal Care and Use Committee (IACUC). All surgeries were conducted while animals were under continuous anesthesia with 4% isoflurane.
The dorsal skin was shaved and then disinfected with 10% povidone-iodine before an excisional full-thickness square-shaped skin wound (1.0×1.0 cm) was induced using a sterile wound maker. Animals were then housed alone in its cage to avoid any further wound damage.
Animals were randomly divided into six groups (n=5 or 6, each group) as follows: • (1) animals treated with salsolinol at a concentration of 0.01 mg/g (C0.01, n=6); • (2) animal treated with the vehicle (V0.01) as compared with the group C0.01; • (3) animal treated with salsolinol at a concentration of 0.03 mg/g (C0.03, n=5); • (4) animal treated with the vehicle (V0.03) as compared with the group C0.03.
The groups were administered at the same amount of the salsolinol at 0.01 mg/g, and 0.03 mg/g or the vechile at the same amount once daily and the wounds were photopictured on Day 1, Day 3, Day 5, Day 7, Day 10, and Day 14. The sizes of the wounds were analyzed using Visual Basic 6.0. The rate of wound recovery at each experimental time point is calculated by the size of the wound as compared with that of the wound at D1, wherein the rate of wound recovery at Day 1 is 1.0.
In another experiment, the wounds of the guinea pigs were treated with salsolinol at a concentration of 0.001 mg/g, 0.01 mg/g or the vehicle at the same amount once daily and the wounds were photopictured on Day 1, Day 3, Day 5, Day 7, Day 10, and Day 14. The sizes of the wounds were analyzed using Visual Basic 6.0. The recovery rate of the wound at each experimental time point was calculated by the size of the wound as compared with that of the wound at D1, wherein the recover rate of wound at Day 1 is 0.0%.

COc1ccc(C[C@H]2c3cc(O)c(OC)cc3CCN2C)cc1O [reticuline, reference compound]
activation of AMPK [1]: can activate | efficacy in reducing blood glucose (blood glucose): has an efficacy in reducing blood glucose

CC1NCCc2cc(O)c(O)cc21 (stereo not drawn) [salsolinol]
recover rate of wound vs vehicle control ([2]; salsolinol 0.001 mg/g (C0.001) once daily, FIG. 4): better than that of the control group | recover rate of wound vs vehicle control ([2]; salsolinol 0.01 mg/g (C0.01) once daily, after Day 3, p<0.05, FIG. 5): significantly better | wound healing (rate of wound recovery) vs vehicle control ([2]; salsolinol 0.01 mg/g (C0.01) once daily vs V0.01, Day 3, Day 5 and Day 7, p<0.01, FIG. 1): significantly better | wound recovery (wound images) vs vehicle controls ([2]; salsolinol 0.01 mg/g): better than the controls | wound healing (rate of wound recovery) vs vehicle control ([2]; salsolinol 0.03 mg/g (C0.03) once daily vs V0.03, Day 3, p<0.05, FIG. 2): significantly better | wound recovery (wound images) vs vehicle controls ([2]; salsolinol 0.03 mg/g): better than the controls | wound recovery (wound images) vs vehicle controls ([2]; salsolinol 0.1 mg/g): better than the controls | wound recovery vs control groups (summary) ([2]; salsolinol at 0.001 mg/g to 0.03 mg/g, preferably 0.01 mg/g): enhanced the wound recovery | activation of AMPK [1]: can activate | efficacy in reducing blood glucose (blood glucose): has an efficacy in reducing blood glucose
